According to patent US11932652B2, “Pyrrolidinyl urea derivatives and application thereof in TrkA-related diseases” (ZHANGZHOU PIEN TZE HUANG PHARMACEUTICAL CO., LTD., priority 2018, dated 2024):

Assays:
[1] = system: plasma protein; assay: Plasma protein binding rate (PPB) test, SD rat plasma; type: in vitro ADME; conditions: 2 μM, dialysis 37° C. 4 hours
Procedure: (§1) The protein binding rates of the test compound in the plasma of humans, SD rats and Beagle dogs were determined.
(§2) 796 μL of blank plasma from humans, SD rats and Beagle dogs (plasma purchased from BioreclamationIVT) were taken, 4 μL of working solution of the test compound (400 μM) or warfarin working solution (400 μM) was added and the final concentration of the test compound or warfarin was 2 μM. The sample was mixed thoroughly. The final concentration of organic phase DMSO was 0.5%; 50 μL of the plasma sample treated with the test compound or warfarin was pipetted into the sample receiving plate, and a corresponding volume of blank plasma or buffer was added immediately so that the final volume in each sample well was 100 μL, the volume ratio of plasma:dialysis buffer was 1:1; 400 μL of stop solution was added to these samples, and these samples were used as T0 samples for recovery and stability determination. To samples were stored at 2° C. to 8° C. for subsequent processing together with other dialyzed samples; 150 μL of the plasma sample treated with the test compound or warfarin was added into the dosing end of each dialysis hole, and 150 μL of blank dialysis buffer was added to the receiving end corresponding to the dialysis hole. Then the dialysis plate was sealed with gas-permeable membrane and placed in a humidified 5% CO2 incubator, and incubated at 37° C. with 100 rpm shaking for 4 hours. After the dialysis, 50 μL of the dialysis buffer sample and the dialysis plasma sample was transferred to a new sample receiving plate. […] All samples were analyzed by LC/MS/MS after protein precipitation, and the plasma protein unbound rate, binding rate and recovery rate was calculated according to the following formula: % unbound rate=100*free compound concentration at the membrane buffer side/total compound concentration at the membrane plasma side, % protein binding rate=100-% unbound rate, % recovery rate=100*(free compound concentration at the membrane buffer side+total compound concentration at the membrane plasma side)/total compound concentration before dialysis.

[2] = In vivo pharmacokinetics in beagle dogs after single administration
Procedure: Male beagle dogs were used as test animals, the concentration of the compound in blood after single administration was determined to evaluate the pharmacokinetic behavior.
Beagle dogs (Male, 6-12 kg, more than 6 months, Beijing Marshall Biotechnology Co., Ltd.).
The objective of the test was to study the pharmacokinetic characteristics of the test compound in non-rodent after intravenous injection and oral administration. In the experiment, the test compound was prepared into a clear solution or homogeneous suspension and administered to the beagle dogs by single intravenous injection or oral administration. In the intravenous injection group, the menstruum was a certain proportion of dimethyl sulfoxide in HP-β-cyclodextrin solution or a certain proportion of ethanol, polyethylene glycol 400 and physiological saline solution, the mixture was vortexed and subjected to ultrasonic treatment to prepare 2 mg/mL or […] clear solution, then filtered with microporous membrane for later use; in the oral administration group, the menstruum was a certain proportion of dimethyl sulfoxide in HP-β-cyclodextrin solution or a certain proportion of sodium carboxymethyl cellulose solution, the test compound was mixed with the menstruum, vortexed and subjected to ultrasonic treatment to prepare 2 mg/mL clear solution or 1 mg/mL homogeneous suspension for later use. After 2 mg/kg or 1 mg/kg intravenous administration or 10 mg/kg or 5 mg/kg oral administration to the Beagle dogs, a certain amount of whole blood samples were collected, centrifuged at 3000 g for 10 minutes, and the supernatant was separated to obtain plasma samples; then an acetonitrile solution containing internal standard with a volume 10 times that of the plasma sample was added to precipitate proteins, and then centrifuged; the supernatant was separated for analysis; LC-MS/MS analysis method was used to quantitatively analyze the blood drug concentration, and Phoenix WinNonlin software (Pharsight, USA) was used to calculate the pharmacokinetic parameters, such as peak concentration, time to peak concentration, clearance rate, half-life, area under the concentration-time curve, bioavailability, etc.
Among them, C0 is the initial concentration, T1/2 is the elimination half-life, Vdss is the steady-state apparent volume of distribution, Cl is the total clearance rate, AUC0-inf is the area under the plasma drug concentration-time curve from time 0 to infinity, Cmax is the peak concentration, Tmax is the time to peak concentration.

[3] = target: T1, CYP3A4 (Homo sapiens, UniProt P08684); assay: Cytochrome P450 isozyme inhibitory activity test, CYP3A4; type: in vitro ADME; conditions: heading: Cytochrome P450 isozyme IC50, CYP3A4; human liver microsome
T1 construct: from tissue; host or cells: human liver microsomes
Procedure: Determination of the inhibitory activity of the test compound on different human cytochrome P450 isozymes.
The test compound, standard inhibitor (100×final concentration), and a mixed substrate working solution were prepared; the microsome frozen in −80° C. refrigerator was thawed. 2 μL of the test compound and standard inhibitor solution was added to the corresponding wells, and at the same time 2 μL of the corresponding solvent was added to the non-inhibitor control wells (NIC) and blank control wells (Blank) wells; then 20 μL of mixed substrate solution was added to the corresponding wells, except for the Blank wells (20 μL of PB was added to the Blank wells); a human liver microsome solution was prepared (put back into the refrigerator immediately after using and marking the date), and then 158 μL of the human liver microsome solution was added to all wells; the above sample plate was placed in a 37° C. water bath for pre-incubation, then the coenzyme factor (NADPH) solution was prepared; 10 minutes later, 20 μL of the NADPH solution was added to all wells, and the sample plate was shaken well, placed in a 37° C. water bath and incubated for 10 minutes; at the corresponding time point, 400 μL of cold acetonitrile solution (internal standard: 200 ng/mL tolbutamide and labetalol) was added to terminate the reaction; the sample plate was evenly mixed, centrifuged at 4000 rpm for 20 minutes to precipitate proteins; 200 μL of the supernatant was added to 100 μL of water, shook well, and tested by LC/MS/MS.

[4] = system: plasma protein; assay: Plasma protein binding rate (PPB) test, human plasma; type: in vitro ADME; conditions: 2 μM, dialysis 37° C. 4 hours
Procedure: as §1, §2

[5] = male, beagle, dog, plasma, 10 mg/kg, dogs, 10 mpk oral administration

T1 sequence (P08684 whole entry): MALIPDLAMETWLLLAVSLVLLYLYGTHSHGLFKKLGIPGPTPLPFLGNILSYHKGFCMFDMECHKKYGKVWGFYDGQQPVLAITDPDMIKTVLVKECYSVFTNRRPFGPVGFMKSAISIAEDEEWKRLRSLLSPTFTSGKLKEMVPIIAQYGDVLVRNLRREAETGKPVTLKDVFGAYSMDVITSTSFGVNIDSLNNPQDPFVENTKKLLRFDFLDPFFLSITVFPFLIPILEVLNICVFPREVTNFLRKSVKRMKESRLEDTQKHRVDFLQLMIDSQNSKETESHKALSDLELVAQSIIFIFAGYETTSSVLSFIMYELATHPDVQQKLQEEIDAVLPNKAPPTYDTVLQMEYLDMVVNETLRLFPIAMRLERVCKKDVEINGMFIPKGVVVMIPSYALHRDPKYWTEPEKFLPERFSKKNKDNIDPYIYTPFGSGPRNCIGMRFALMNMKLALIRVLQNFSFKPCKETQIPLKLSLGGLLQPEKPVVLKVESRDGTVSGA

- Plasma protein unbound rate, SD Rat plasma [1]: 7.1%
- AUC(0-inf) [2, 5]: 7.69 µM·h
- Cmax [2, 5]: 3.95 µM
- Tmax [2, 5]: 0.63 h
- bioavailability [2, 5]: 33%
- half-life [2, 5]: 2.2 h
- IC50 [3]: > 50 µM
- Plasma protein unbound rate, Human plasma [4]: 13.2%
Compound: COCCN1C[C@@H](n2ccc(F)c2)[C@H](NC(=O)Nc2c(C)c(-c3cnc(C4(F)COC4)nc3)nn2-c2ccccc2)C1 [Compound 7]
- pharmacokinetic properties and oral bioavailability (in words) ([2]; in beagle dogs): good pharmacokinetic properties and oral bioavailability
